For test [1], the system named is ICR mice. Description: Mouse tail-hanging experiment (Experiment 1). It counts as in vivo. The protocol:
1.1 Experimental animals: ICR mice, male, 22.0±2 g of body weight, secondary, are provided by the Experimental Animal Science Department of Capital Medical University, Beijing. 1.2 Experiment pharmaceuticals: The pharmaceutical of Embodiment 1 is provided by Beijing Wonner Biotech. […] High dose of Embodiment 1 (80 mg/kg/d); 2. middle dose of Embodiment 1 (40 mg/kg/d); and 3. low dose of Embodiment 1 (20 mg/kg/d). 1.5.1 Group division and administration of drug: The mice are grouped randomly, and 10 mice are in each group. 1. High dose of Embodiment 1 (80 mg/kg, per oral (P.O.), administered for 7 days); 2. middle dose of Embodiment 1 (40 mg/kg, P.O., administered for 7 days); 3. low dose of Embodiment 1 (20 mg/kg, P.O., administered for 7 days); 4. […] After 1 hour of the last administration of drug, the mouse tail-hanging experiment is proceeded. 1.5.2 Experimental method: The mouse's tail (1 cm to the tail end) is taped on the wood strip higher than the platform for 5 cm and hung up for 6 minutes. The time of non-movement of the mouse for the last 5 minutes is recorded. 1.5.3 Statistic calculation: The experimental data are represented as X±SD, and the experimental result is calculated as analysis of variance (ANOVA) by SPSS 11.5 statistic software.

Test [2] deals with ICR mice. The test can be described thus: Resetpine-induced mouse body temperature decrease experiment (Experiment 6). It counts as in vivo. The text has this:
6.1 Experimental animals: ICR mice, male, 22.0±2 g of body weight, secondary, are provided by the Experimental Animal Science Department of Capital Medical University, Beijing.
6.2 Experiment pharmaceuticals: The pharmaceutical of Embodiment 3 is provided by Beijing Wonner Biotech. Ltd. Co., Paroxetine (Paxil) is the product of Zhong Mei Tianjin Smith Kline pharmaceuticals Co. Ltd., and Resetpine is the product of Guangdong BangMin Pharmaceutical Co., Ltd.
6.4 Dose designs: 1. High dose of Embodiment 3 (80 mg/kg/d); 2. middle dose of Embodiment 3 (40 mg/kg/d); and 3. low dose of Embodiment 3 (20 mg/kg/d).
6.5.1 Group division and administration of drug: The mice are grouped randomly, and 10 mice are in each group. 1. High dose of Embodiment 3 (80 mg/kg, P.O., administered for 7 days); 2. middle dose of Embodiment 3 (40 mg/kg, P.O., administered for 7 days); 3. low dose of Embodiment 3 (20 mg/kg, P.O., administered for 7 days); 4.
6.5.2 Experimental method: After 1 hour of the last administration of drug on the eighth day, the mouse's anal temperature is determined. […] After 4 hours of injecting Resetpine, the mouse's anal temperature is determined once again. […]
6.5.3 Statistic calculation: The experimental data are represented as X±SD, and the experimental result is calculated as ANOVA by SPSS 11.5 statistic software.

Test [3] concerns unpredictable long-term stimulus model. Description: Open field activity experiment, unpredictable long-term stimulus model (Experiment 8). It counts as in vivo, rat. As to conditions: 2 mg/kg/d into the stomach, 24 days; within 3 minutes. The text has this:
7.5.1 Open field activity experiment: The open field activity box (1 m×1 m×0.4 m) is constructed by the light blue plywood and the aluminum alloy frame. The box bottom is separated into 25 grids (20 cm×20 cm for each grid), the circumference is the peripheral grids (16 grids), and others are the central grids (9 grids). The rat is placed in the center of the central grids, and the rat's cross-grid number (the number of crossing into the neighboring gird more than 3 claws) and rat's standing number (two forelimbs leaving the ground for more than 1 cm) are calculated/observed within 3 minutes.
Unpredictable long-term stimulus model: Health Wistar male rats, secondary, 240˜270 g of body weight, are purchased from Beijing Vital River Experimental Animal Technology Ltd. Co. (The quality certificate number: SOCK (JING) 2002-2003).
The above pharmaceuticals are prepared with 0.5% of sodium carboxymethylcellulose (CMC-Na) for feeding into the stomach. Benzylpenicillin sodium for injection is the product of North China Pharmaceutical Huasheng Co. Ltd. (Lot: S0511204), and norepinephrine (NE) and 5-hydrotryptamine (5-HT) standards are the products of Sigma Co. Other reagents are all marketed. […]
8.6 Statistic calculation: The experimental data are represented as […], and the experimental result is calculated as ANOVA by SPSS 11.5 statistic software.

The subject of test [4] is NE and 5-HT contents in the rat cerebral cortex. Description: HPLC-electrochemical test of NE and 5-HT contents in the rat cerebral cortex, unpredictable long-term stimulus model (Experiment 8). The class given is in vivo. As to conditions: 2 mg/kg/d into the stomach, 24 days.
Protocol: 8.4.1 Group division and administration of drug: The rats are grouped randomly into 6 groups. […] The test drugs and the positive control drug are prepared with 0.5% of CMC-Na for feeding into the stomach once every day.
Unpredictable long-term stimulus model: The rats in the control group eat and drink normally, and there is no stimulus performed. […]
8.5.6 HPLC-electrochemical test: The amounts of norepinephrine and 5-hydrotryptamine in the rat cerebral cortex are measured.
8.6 Statistic calculation: The experimental data are represented as 7±SD, and the experimental result is calculated as ANOVA by SPSS 11.5 statistic software.

We go through one molecule from patent publication US20100311674A1, “PHARMACEUTICAL COMPOSITIONS WITH A MECHANISM OF MULTI-TARGET RECEPTOR RETROACTION FOR TREATING DEPRESSION” (Yu-Fen Chi, priority 2007, published 2010).

The molecule `Fc1ccc([C@@H]2CCNC[C@H]2COc2ccc3c(c2)OCO3)cc1` [Paroxetine] came in with a Time of non-movement in the test with ICR mice [1] (3 mg/kg P.O. 7 days, 1 h after last dose, last 5 of 6 min) of 75.33 ± 22.91 s. For the same molecule, the “Effect on time of non-movement after the mouse's tail is hung up (in words)” value with ICR mice [1] (high and middle doses of Embodiment 1, Paroxetine, significantly different from control) is listed as “decrease the time of non-movement”. This molecule also showed a Decreased temperature in the test on ICR mice [2] (3 mg/kg P.O. 7 days, 4 h after Resetpine 2 mg/kg i.p.) of 2.38 ± 0.69 °C. In addition, the “Effect on reduced body temperature induced by Resetpine (in words)” value in the test on ICR mice [2] (high, middle and low doses of Embodiment 3, Paroxetine) is “decrease the reduced body temperature induced by Resetpine”. Besides, in test [3], the “Horizontal movement (cross-grid number)” value is reported as 61.85 ± 21.68 and the “Vertical movement (standing number)” value is reported as 14.69 ± 4.2. Also, the NE in test [4] is 220.5419 ± 38.32 nmol/L brain tissue extract.
